Results on 21 compounds are retold here after patent US12466812B2, “Pyridinyltriazine derivative having protein kinase inhibitory activity, and pharmaceutical composition for preventing, ameliorating, or treating cancer comprising same” (KOREA INSTITUTE OF SCIENCE AND TECHNOLOGY, priority 2019, dated 2025).

Molecules are shown by their SMILES.

The test system of assay [1] is AN3-CA, a uterine cancer cell line. The assay can be described thus: Inhibitory activity against cancer cell proliferation (Experimental Example 2). The assay is classed as cell-based. Particulars: Homo sapiens, Table 2.
Assay [2] deals with FGFR3 mutant (K650E) (Homo sapiens, UniProt P22607, K650E). The assay can be described thus: Pan-FGFR mutant enzymatic activity. The assay is classed as biochemical. Particulars: mutant enzyme. The procedure: (§1) The inhibitory activity against pan-FGFR mutants of the compounds synthesized in Examples 1, 8, 13, 22, and 24 was measured, the inhibitory activity on each of enzymatic activity and cellular activity was evaluated, and the results are shown in Tables 3 and 4 below.
Chain of FGFR3 mutant (K650E) (P22607 23-806 K650E): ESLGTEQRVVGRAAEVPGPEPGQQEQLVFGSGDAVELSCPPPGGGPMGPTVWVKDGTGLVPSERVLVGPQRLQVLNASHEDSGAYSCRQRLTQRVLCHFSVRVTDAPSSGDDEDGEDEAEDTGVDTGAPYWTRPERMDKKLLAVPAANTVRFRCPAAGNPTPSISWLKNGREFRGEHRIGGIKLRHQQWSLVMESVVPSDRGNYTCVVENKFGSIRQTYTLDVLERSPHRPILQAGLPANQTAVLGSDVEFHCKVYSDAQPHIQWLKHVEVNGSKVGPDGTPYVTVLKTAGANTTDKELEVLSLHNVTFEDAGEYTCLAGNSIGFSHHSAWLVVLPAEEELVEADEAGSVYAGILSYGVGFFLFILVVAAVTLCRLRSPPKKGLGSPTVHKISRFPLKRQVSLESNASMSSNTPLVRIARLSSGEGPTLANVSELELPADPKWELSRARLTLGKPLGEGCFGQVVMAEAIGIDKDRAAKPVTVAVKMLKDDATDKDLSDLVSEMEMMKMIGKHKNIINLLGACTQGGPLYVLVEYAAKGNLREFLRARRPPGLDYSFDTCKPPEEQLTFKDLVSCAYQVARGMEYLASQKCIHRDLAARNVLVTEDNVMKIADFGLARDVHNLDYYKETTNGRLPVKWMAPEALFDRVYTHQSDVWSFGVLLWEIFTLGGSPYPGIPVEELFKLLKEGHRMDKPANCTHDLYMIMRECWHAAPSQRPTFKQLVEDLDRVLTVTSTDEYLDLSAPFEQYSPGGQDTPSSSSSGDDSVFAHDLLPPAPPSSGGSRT

The target of assay [3] is FGFR2 mutant (N549H) (Homo sapiens, UniProt P21802, N549H). As to the kind of experiment: Pan-FGFR mutant enzymatic activity. The class given is biochemical. Particulars: mutant enzyme. The procedure: as §1
Chain of FGFR2 mutant (N549H) (P21802 22-821 N549H): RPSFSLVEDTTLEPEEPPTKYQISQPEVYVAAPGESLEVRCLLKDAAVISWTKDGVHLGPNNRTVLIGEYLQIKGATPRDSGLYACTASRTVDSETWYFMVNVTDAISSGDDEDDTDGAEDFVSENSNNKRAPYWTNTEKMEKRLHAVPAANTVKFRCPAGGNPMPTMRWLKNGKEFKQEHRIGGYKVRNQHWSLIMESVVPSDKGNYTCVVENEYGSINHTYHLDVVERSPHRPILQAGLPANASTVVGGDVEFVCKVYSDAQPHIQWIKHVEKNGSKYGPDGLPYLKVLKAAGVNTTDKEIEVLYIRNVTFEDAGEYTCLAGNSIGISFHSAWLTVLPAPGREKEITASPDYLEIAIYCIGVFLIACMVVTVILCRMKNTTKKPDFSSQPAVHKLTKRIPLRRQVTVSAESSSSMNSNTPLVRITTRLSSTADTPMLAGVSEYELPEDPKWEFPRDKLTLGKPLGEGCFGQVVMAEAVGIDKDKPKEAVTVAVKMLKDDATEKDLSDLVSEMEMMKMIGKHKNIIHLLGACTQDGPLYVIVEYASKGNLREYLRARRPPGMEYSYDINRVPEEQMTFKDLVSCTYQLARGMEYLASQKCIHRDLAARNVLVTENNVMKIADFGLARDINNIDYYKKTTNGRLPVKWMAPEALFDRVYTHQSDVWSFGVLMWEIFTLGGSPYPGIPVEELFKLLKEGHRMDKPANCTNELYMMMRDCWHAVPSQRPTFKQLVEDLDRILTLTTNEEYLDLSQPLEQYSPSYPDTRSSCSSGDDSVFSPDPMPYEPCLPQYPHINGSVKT
The target of assay [4] is FGFR3 mutant (K650M) (Homo sapiens, UniProt P22607, K650M). The assay can be described thus: Pan-FGFR mutant enzymatic activity. Particulars: mutant enzyme. The assay is classed as biochemical. How it is done: as §1
Chain of FGFR3 mutant (K650M) (P22607 23-806 K650M): as the sequence (P22607 23-806 K650E) above, with E628M counted along it
Assay [5] addresses FGFR3 mutant (V555M) (Homo sapiens, UniProt P22607, V555M). The assay can be described thus: Pan-FGFR mutant enzymatic activity. The class given is biochemical. Particulars: mutant enzyme. The procedure:
as §1

The target in assay [6] is FGFR2 mutant (V564F) (Homo sapiens, UniProt P21802, V564F). The assay can be described thus: Pan-FGFR mutant enzymatic activity. The class given is biochemical. Particulars: mutant enzyme. The procedure:
as §1

The subject of assay [7] is J82 (bladder cancer cell line). As to the kind of experiment: Pan-FGFR mutant cellular activity. The assay is classed as cell-based. Particulars: Table 4. The procedure:
as §1

In assay [8] the test system is AN3-CA. The assay can be described thus: Pan-FGFR mutant cellular activity. The class given is cell-based. Particulars: Homo sapiens, mutant cell, Table 4, read-out: GI50, AN3-CA (breast cancer cell line). How it is done:
as §1

The subject of assay [9] is KMS-11 (myeloma cell line). The assay can be described thus: Pan-FGFR mutant cellular activity. The class given is cell-based. Particulars: Homo sapiens, Table 4. How it is done: as §1
Assay [10] has as its system UMUC3 (bladder cancer cell line). As to the kind of experiment: Pan-FGFR mutant cellular activity. The assay is classed as cell-based. Particulars: Homo sapiens, Table 4. How it is done:
as §1

Chain of FGFR3 mutant (V555M) (P22607 23-806 V555M): as the sequence (P22607 23-806 K650E) above, with V533M, E628K counted along it
Chain of FGFR2 mutant (V564F) (P21802 22-821 V564F): as the sequence (P21802 22-821 N549H) above, with H528N, V543F counted along it

In the case of `COc1cc(OC)c(Cl)c(Nc2ncccc2-c2ncnc(Nc3ccc(N(C)C)cc3)n2)c1Cl` [Example 7, N^1-(4-(2-((2,6-dichloro-3,5-dimethoxyphenyl)amino)pyridin-3-yl)-1,3,5-triazin-2-yl)-N^4,N^4-dimethylbenzene-1,4-diamine], the GI50 in assay [1] is < 1000 nM.
The same measure, in the same setting: the figure for `COc1cc(OC)c(Cl)c(Nc2ncccc2-c2ncnc(Nc3cnn(CCCN(C)C)c3)n2)c1Cl` [Example 20, 4-(2-((2,6-dichloro-3,5-dimethoxyphenyl)amino)pyridin-3-yl)-N-(1-(3-(dimethylamino)propyl)-1H-pyrazol-4-yl)-1,3,5-triazin-2-amine] is < 1000 nM; for `COc1cc(N2CCN(C)CC2)ccc1Nc1ncnc(-c2cccnc2Nc2c(Cl)c(OC)cc(OC)c2Cl)n1` [Example 14] it is < 1000 nM.
Same read-out and setting: the same measure for `COc1cc(OC)c(Cl)c(Nc2ncccc2-c2ncnc(Nc3ccccc3)n2)c1Cl` [Example 4, 4-(2-((2,6-dichloro-3,5-dimethoxyphenyl)amino)pyridin-3-yl)-N-phenyl-1,3,5-triazin-2-amine]: < 1000 nM; for `COc1cccc(Nc2ncnc(-c3cccnc3Nc3c(Cl)c(OC)cc(OC)c3Cl)n2)c1` [Example 6]: < 1000 nM; for `COc1cc(OC)c(Cl)c(Nc2ncccc2-c2ncnc(Nc3ccc(N4CCN(C(C)=O)CC4)cc3)n2)c1Cl` [Example 11, 1-(4-(4-((4-(2-((2,6-dichloro-3,5-dimethoxyphenyl)amino)pyridin-3-yl)-1,3,5-triazin-2-yl)amino)phenyl)piperazin-1-yl)ethan-1-one]: < 1000 nM.
Turning to `COc1cc(OC)c(Cl)c(Nc2ncccc2-c2ncnc(Nc3ccc(N4C[C@@H](C)N[C@@H](C)C4)cc3)n2)c1Cl` [Example 13], the GI50 in assay [1] was < 1000 nM; in assay [7] it was < 1000 nM; in [8], < 1000 nM; in assay [9] it was < 1000 nM; in [10] it was 1000 to 10000 nM. Besides, the IC50 in assay [2] was < 100 nM; in [3], < 100 nM; in [4] it was < 100 nM; in assay [5], 100 to 1000 nM; in assay [6], 100 to 1000 nM.
Take `CCN1CCN(c2cccc(Nc3ncnc(-c4cccnc4Nc4c(Cl)c(OC)cc(OC)c4Cl)n3)c2)CC1` [Example 8]: the GI50 is < 1000 nM in [1]; 1000 to 10000 nM in assay [7]; < 1000 nM in [8]; < 1000 nM in assay [9]; 1000 to 10000 nM in assay [10]. Moreover, the IC50 is < 100 nM in assay [2]; < 100 nM in assay [3]; < 100 nM in assay [4]; 100 to 1000 nM in assay [5]; 100 to 1000 nM in assay [6].
In the case of `C=CCn1cc(Nc2ncnc(-c3cccnc3Nc3c(Cl)c(OC)cc(OC)c3Cl)n2)cn1` [Example 19, N-(1-allyl-1H-pyrazol-4-yl)-4-(2-((2,6-dichloro-3,5-dimethoxyphenyl)amino)pyridin-3-yl)-1,3,5-triazin-2-amine], the GI50 in [1] was > 10000 nM.
`COc1cc(OC)c(Cl)c(Nc2ncccc2-c2ncnc(Nc3ccc(N4CCC(O)CC4)cc3)n2)c1Cl` [Example 12]: the GI50 in assay [1] was < 1000 nM.
For `COc1cc(OC)c(Cl)c(Nc2ncccc2-c2ncnc(Nc3ccc(N4CCOCC4)nc3)n2)c1Cl` [Example 10], the GI50 in assay [1] is < 1000 nM.
The same measure, in the same setting: the same measure for `COc1ccccc1Nc1ncnc(-c2cccnc2Nc2c(Cl)c(OC)cc(OC)c2Cl)n1` [Example 5]: 1000 to 10000 nM; for `COc1cc(OC)c(Cl)c(Nc2ncccc2-c2ncnc(Nc3ccc(N4CCOCC4)nc3OC)n2)c1Cl` [Example 16]: > 10000 nM.
Consider `COc1cc(N2C[C@@H](C)N[C@@H](C)C2)ccc1Nc1ncnc(-c2cccnc2Nc2c(Cl)c(OC)cc(OC)c2Cl)n1` [Example 17], for which, in assay [1], the GI50 was < 1000 nM.
Same read-out and setting: the same measure for `COc1cc(OC)c(Cl)c(Nc2ncccc2-c2ncnc(Nc3cnn(C4CCOCC4)c3)n2)c1Cl` [Example 21, 4-(2-((2,6-dichloro-3,5-dimethoxyphenyl)amino)pyridin-3-yl)-N-(1-(tetrahydro-2H-pyran-4-yl)-1H-pyrazol-4-yl)-1,3,5-triazin-2-amine]: < 1000 nM; for `COc1cc(OC)c(Cl)c(Nc2ncccc2-c2ncnc(N)n2)c1Cl` [Example 2, 4-(2-((2,6-dichloro-3,5-dimethoxyphenyl)amino)pyridin-3-yl)-1,3,5-triazin-2-amine]: < 1000 nM; for `COc1cc(N2CCOCC2)ccc1Nc1ncnc(-c2cccnc2Nc2c(Cl)c(OC)cc(OC)c2Cl)n1` [Example 15]: > 10000 nM.
Same read-out and setting: the same measure for `COc1cc(OC)c(Cl)c(Nc2ncccc2-c2ncnc(NCCN(C)C)n2)c1Cl` [Example 3, N^1-(4-(2-((2,6-dichloro-3,5-dimethoxyphenyl)amino)pyridin-3-yl)-1,3,5-triazin-2-yl)-N^2,N^2-dimethylethane-1,2-diamine]: 1000 to 10000 nM; for `COc1cc(OC)c(Cl)c(Nc2ncccc2-c2ncnc(Nc3cnn(C)c3)n2)c1Cl` [Example 18]: < 1000 nM.
Turning to `COc1cc(OC)c(Cl)c(Nc2ncccc2-c2ncnc(Nc3ccc(N4CCOCC4)cc3)n2)c1Cl` [Example 9], the GI50 in [1] lay within 1000 to 10000 nM.
The same measure, in the same setting: the figure for `COc1cc(OC)c(Cl)c(Nc2ncccc2-c2ncnc(Nc3cnn(C4CCN(C(=O)OC(C)(C)C)CC4)c3)n2)c1Cl` [Example 23, Tert-butyl 4-(4-((4-(2-((2,6-dichloro-3,5-dimethoxyphenyl)amino)pyridin-3-yl)-1,3,5-triazin-2-yl)amino)-1H-pyrazol-1-yl) piperidine-1-carboxylate] is < 1000 nM.

What is called GI50 is the concentration that inhibits growth by half. Usually IC50 stands for the concentration that gives 50% inhibition. A lower IC50 goes with greater potency.
